According to ChEMBL document CHEMBL1201862, “PubChem BioAssay data set” (2004):
The source made the active and inactive calls.

Assays:
[1] = target: T1, Rac GTPase-activating protein 1 (Homo sapiens, UniProt Q9H0H5); assay: MgcRacGAP GTPase-activating activity inhibitors, confirmation, biochemical, ADP Hunter fluorescence, primary and confirmatory (AID 624330); assay type: functional
T1 sequence (Q9H0H5 whole entry): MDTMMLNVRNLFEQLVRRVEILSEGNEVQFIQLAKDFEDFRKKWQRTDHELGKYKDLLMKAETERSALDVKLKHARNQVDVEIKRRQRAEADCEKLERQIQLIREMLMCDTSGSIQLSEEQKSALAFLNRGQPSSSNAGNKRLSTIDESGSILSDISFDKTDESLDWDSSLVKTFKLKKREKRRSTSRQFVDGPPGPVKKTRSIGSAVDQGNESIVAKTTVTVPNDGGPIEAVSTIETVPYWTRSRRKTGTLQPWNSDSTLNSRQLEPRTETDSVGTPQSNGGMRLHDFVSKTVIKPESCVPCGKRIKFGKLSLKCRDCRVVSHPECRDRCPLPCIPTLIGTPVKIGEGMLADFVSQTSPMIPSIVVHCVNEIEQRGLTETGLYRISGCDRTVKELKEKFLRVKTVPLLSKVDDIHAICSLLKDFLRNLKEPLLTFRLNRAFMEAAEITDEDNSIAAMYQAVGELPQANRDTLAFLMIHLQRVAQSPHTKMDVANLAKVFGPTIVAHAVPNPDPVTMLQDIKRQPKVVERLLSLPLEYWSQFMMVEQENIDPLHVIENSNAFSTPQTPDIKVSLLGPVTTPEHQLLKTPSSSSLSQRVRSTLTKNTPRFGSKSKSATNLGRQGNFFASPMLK

HeLa = assay: Cytotoxicity counterscreen assay for transcriptional activators of heat shock protein 70 (Hsp70). [Related pubchem assays: 1203, 1252 ]; assay type: functional; details: Homo sapiens;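 note: cells exposed to compound for 16 hours before readout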
Streptococcus = assay: Group A Streptococcus viability loss, dose response, counter-screen for streptokinase expression inhibitor project, luminescence, BacTiterGlo (AID 1915); assay type: functional, organism-based;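 note: potency for reduction of bacterial viability or growth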
[2] = Luminescence Cell-Based Dose Retest to Confirm Inhibitors of Cancer Stem Cells. [Related pubchem assays (depositor defined):AID2717, AID2721]; assay type: functional; details: Homo sapiens
Streptokinase A = target: T2, Streptokinase A (Streptococcus pyogenes serotype M1, UniProt P10520); assay: S. pyogenes streptokinase expression inhibitors, potency, dose response, plasminogen activation absorbance, OD405 (AID 1914); assay type: functional, Streptococcus pyogenes M1 GAS;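 note: secreted streptokinase activity via plasminogen activation per viability signal from cell pellet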
T2 sequence (P10520 whole entry): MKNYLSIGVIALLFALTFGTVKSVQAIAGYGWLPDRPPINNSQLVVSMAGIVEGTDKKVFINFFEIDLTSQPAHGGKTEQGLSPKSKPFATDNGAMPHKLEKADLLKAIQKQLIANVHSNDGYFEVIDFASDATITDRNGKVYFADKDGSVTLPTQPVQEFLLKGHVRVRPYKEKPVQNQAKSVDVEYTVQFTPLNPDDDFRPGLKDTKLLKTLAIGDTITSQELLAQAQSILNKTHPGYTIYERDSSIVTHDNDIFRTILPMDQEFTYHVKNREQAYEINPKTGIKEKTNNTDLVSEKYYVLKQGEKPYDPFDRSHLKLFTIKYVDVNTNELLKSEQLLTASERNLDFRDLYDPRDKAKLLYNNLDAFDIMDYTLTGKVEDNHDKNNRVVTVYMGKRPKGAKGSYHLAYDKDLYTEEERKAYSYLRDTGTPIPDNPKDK

[3] = enhancers of respiration in Yfh1-depleted yeast, dose response, Friedreich's ataxia, plus single-dose screen (AID 1465); assay type: functional;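 note: yeast depleted of Yfh1p frataxin homolog grown on glycerol needing respiration; WST-1 tetrazolium dye reduction as measure of cellular dehydrogenase metabolic activity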
[4] = target: T3, Probable nicotinate-nucleotide adenylyltransferase (Staphylococcus aureus (strain N315), UniProt P65502); assay type: functional, Staphylococcus aureus subsp. aureus N315;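 for IC50 Mean: confirmatory dose-response retesting of NadD inhibitor hits first found in an ultra-high-throughput screen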
[5] = test system: Streptococcus sp. 'group A'; assay: growth inhibition of control SK(-) GAS strain, dose response, counter-screen for streptokinase expression inhibitor project, luminescence, kanamycin, BacTiterGlo, confirmation (AID 1900); assay type: functional, organism-based
[6] = target: T3, Probable nicotinate-nucleotide adenylyltransferase; assay type: functional, Staphylococcus aureus subsp. aureus N315; details: read-out: IC50_Mean
Aminopeptidase N = target: T4, Aminopeptidase N (Plasmodium falciparum FcB1/Columbia, UniProt O96935); assay: P. falciparum M1AAP inhibitors, biochemical, fluorogenic H-Leu-NHMec substrate, 1536-well (AID 1445); set-up: species or system Plasmodium falciparum 3D7, 3D7
T4 sequence (O96935 whole entry): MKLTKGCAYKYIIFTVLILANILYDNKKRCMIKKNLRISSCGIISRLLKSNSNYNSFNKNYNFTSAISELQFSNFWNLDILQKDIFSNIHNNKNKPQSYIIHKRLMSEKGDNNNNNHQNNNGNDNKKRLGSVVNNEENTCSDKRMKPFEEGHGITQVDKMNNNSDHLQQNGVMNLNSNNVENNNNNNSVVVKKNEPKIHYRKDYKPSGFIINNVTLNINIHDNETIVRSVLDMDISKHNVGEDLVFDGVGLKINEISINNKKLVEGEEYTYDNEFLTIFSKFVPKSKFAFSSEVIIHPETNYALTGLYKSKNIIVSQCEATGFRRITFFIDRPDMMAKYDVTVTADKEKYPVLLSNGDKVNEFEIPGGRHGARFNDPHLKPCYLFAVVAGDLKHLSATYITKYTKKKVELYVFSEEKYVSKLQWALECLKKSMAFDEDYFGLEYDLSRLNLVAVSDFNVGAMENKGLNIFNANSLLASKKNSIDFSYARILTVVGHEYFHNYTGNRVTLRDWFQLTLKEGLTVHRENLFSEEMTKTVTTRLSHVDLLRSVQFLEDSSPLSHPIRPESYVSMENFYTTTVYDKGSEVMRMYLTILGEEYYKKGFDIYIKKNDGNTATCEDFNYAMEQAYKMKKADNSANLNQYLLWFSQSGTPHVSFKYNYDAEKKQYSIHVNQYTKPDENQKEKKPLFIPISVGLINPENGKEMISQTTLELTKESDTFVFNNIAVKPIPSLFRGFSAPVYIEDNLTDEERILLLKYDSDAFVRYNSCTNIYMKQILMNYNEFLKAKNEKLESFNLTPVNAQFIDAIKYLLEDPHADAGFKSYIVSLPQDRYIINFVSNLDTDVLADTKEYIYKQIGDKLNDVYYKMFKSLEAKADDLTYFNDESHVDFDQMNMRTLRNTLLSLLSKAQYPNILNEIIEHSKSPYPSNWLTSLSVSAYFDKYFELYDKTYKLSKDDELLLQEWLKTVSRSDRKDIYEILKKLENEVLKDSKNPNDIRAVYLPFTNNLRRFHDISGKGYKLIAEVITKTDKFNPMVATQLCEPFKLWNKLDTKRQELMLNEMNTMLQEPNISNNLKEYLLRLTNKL

[7] = HIV-1 Env-mediated cell fusion inhibitors, dose response, CCR5-tropic Env (AID 2279); assay type: functional
Estrogen receptor = target: T5, Estrogen receptor (Homo sapiens, UniProt P03372); assay: ERα–SRC-3 coactivator interaction inhibitors, confirmation, orthogonal assay, biochemical, ELISA, streptavidin-HRP readout (AID 1079)
T5 sequence (P03372 whole entry): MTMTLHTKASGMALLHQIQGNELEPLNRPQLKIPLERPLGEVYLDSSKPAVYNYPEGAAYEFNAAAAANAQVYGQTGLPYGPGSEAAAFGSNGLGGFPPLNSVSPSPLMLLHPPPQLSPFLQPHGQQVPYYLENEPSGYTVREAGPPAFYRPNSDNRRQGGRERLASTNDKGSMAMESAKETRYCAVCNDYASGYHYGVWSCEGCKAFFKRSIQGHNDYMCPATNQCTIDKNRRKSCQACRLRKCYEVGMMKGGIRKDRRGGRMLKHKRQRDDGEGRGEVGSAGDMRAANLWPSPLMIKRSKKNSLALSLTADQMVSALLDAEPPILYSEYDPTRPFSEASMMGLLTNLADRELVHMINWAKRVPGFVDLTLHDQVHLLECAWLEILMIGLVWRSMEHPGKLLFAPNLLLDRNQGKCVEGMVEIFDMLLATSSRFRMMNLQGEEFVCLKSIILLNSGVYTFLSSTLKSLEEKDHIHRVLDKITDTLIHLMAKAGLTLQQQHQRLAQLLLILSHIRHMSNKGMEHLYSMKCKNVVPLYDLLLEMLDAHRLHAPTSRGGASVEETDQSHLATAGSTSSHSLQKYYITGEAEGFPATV

[8] = inhibitors of Bluetongue virus cytopathic effect, confirmation, arbovirus, BSR cells (AID 1250); assay type: functional;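 note: protection from viral cytopathic effect measured as cell viability by ATP luminescence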
[9] = target: Peroxisome proliferator-activated receptor gamma/Nuclear receptor coactivator 2 (Homo sapiens, UniProt P37231); assay type: functional;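 note: agonist potency for raising coactivator recruitment to the receptor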
[10] = target: Peroxisome proliferator-activated receptor gamma/Nuclear receptor coactivator 3 (Homo sapiens, UniProt P37231); assay type: functional;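 note: agonist potency for raising coactivator recruitment to the receptor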
[11] = target: Peroxisome proliferator-activated receptor gamma/Nuclear receptor coactivator 1 (Homo sapiens, UniProt P37231); assay type: functional;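 note: agonist potency as compounds enhance coactivator SRC-1 recruitment to PPARgamma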
Ion channel NompC = Ion channel NompC (Danio rerio, UniProt Q7T1G6); assay: Fluorescence counterscreen assay for TRPML3 agonists: dose response cell-based high-throughput screening assay to identify agonists of the transient receptor potential channel N1 (TRPN1). [Related pubchem assays: 1526, 1424, 1448 ]; assay type: functional
Mucolipin-3 = Mucolipin-3 (Homo sapiens, UniProt Q8TDD5); assay: Dose response cell-based high-throughput screening assay for agonists of the transient receptor potential channel ML3 (TRPML3). [Related pubchem assays: 1526, 1424, 1448 ]; assay type: functional
[12] = inhibitors of intracellular T. cruzi replication, confirmation, NIH3T3 host cells, beta-gal luminescence (AID 2044); assay type: functional, cell-based;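 note: intracellular parasites grown in NIH/3T3 mouse fibroblasts as host cells; luminescent beta-galactosidase reporter signal from transgenic T. cruzi replicating inside host cells; inhibitors lower the luminescence signal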
[13] = cytotoxicity toward NIH3T3 fibroblasts, dose response, counter-screen, cell-based, ATP luminescence, mouse fibroblasts (AID 2010); assay type: functional;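 note: cells exposed to compound for about 90 hours before reading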
[14] = target: T6, Zinc finger protein mex-5 (Caenorhabditis elegans, UniProt Q9XUB2); assay: MEX-5/TCR-2 RNA interaction inhibitors, dose response, biochemical, C. elegans, fluorescence polarization (AID 1960)
T6 sequence (Q9XUB2 whole entry): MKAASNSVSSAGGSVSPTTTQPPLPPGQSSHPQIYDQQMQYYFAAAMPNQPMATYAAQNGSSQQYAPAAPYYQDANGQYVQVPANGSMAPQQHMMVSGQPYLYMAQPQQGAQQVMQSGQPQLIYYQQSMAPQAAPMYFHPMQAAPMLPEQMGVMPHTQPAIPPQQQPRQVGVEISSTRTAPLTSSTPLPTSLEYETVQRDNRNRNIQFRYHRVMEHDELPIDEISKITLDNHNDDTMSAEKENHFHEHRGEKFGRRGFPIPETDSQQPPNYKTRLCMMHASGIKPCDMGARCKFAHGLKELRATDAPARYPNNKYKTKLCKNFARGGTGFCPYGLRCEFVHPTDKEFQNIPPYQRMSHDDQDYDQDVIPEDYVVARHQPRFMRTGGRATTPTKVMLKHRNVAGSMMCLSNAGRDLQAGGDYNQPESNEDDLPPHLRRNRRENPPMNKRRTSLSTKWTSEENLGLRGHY

[15] = target: T7, RNA-binding protein pos-1 (Caenorhabditis elegans, UniProt G5EF15); assay: inhibitors of POS-1/mex-3 RNA binding, dose response, biochemical, fluorescence polarization (AID 1964);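 note: purified POS-1 fused to maltose binding protein made in E. coli; potency of compounds blocking POS-1 binding to fluorescent RNA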
T7 sequence (G5EF15 whole entry): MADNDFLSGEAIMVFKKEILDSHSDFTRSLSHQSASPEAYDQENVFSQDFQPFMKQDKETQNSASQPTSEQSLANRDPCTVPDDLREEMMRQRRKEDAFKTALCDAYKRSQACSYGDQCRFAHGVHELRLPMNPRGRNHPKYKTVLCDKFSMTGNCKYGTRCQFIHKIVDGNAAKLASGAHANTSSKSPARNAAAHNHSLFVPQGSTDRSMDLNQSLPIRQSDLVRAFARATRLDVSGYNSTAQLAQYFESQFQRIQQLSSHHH

[16] = target: Mothers against decapentaplegic homolog 3 (Homo sapiens, UniProt P84022); assay: SMAD3 transcription factor inhibitors, dose response (AID 715); assay type: functional
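Throughout, for AC50: cells exposed to compound for roughly 70 hours or longer before luminescence read.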

T3 sequence (P65502 whole entry): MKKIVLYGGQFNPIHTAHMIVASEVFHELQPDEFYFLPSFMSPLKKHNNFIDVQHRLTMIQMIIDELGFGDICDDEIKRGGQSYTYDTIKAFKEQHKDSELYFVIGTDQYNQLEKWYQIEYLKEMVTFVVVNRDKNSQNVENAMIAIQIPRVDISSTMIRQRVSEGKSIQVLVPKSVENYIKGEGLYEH
Chain of Mucolipin-3 (Q8TDD5 whole entry): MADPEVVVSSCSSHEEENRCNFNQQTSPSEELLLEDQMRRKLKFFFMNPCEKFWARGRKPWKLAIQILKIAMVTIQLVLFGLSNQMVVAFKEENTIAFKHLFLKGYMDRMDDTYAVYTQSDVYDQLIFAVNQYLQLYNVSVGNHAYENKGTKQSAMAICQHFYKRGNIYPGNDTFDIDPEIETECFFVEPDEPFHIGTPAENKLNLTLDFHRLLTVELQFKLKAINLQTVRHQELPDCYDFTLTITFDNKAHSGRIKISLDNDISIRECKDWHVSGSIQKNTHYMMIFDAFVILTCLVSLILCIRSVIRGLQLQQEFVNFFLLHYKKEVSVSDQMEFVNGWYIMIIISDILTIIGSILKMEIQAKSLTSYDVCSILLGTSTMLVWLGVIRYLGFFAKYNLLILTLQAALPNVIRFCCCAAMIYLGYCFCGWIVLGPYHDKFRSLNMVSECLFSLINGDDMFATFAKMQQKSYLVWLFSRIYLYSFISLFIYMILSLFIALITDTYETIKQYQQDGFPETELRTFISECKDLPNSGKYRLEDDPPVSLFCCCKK
Chain of Peroxisome proliferator-activated receptor gamma/Nuclear receptor coactivator 2 (P37231 whole entry): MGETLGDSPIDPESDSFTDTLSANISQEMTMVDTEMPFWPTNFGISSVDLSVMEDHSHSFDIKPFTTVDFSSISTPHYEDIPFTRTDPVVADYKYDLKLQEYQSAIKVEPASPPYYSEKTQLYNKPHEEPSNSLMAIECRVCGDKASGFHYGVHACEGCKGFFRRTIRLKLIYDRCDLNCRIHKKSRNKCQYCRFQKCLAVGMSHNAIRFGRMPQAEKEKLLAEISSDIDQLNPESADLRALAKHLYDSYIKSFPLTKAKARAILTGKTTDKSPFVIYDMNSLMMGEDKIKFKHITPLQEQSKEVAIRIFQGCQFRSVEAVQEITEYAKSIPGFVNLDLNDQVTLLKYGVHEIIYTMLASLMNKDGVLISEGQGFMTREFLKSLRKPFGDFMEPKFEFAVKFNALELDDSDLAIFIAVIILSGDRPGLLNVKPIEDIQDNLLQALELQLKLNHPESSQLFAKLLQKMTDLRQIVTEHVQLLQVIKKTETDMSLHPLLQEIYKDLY
Chain of Peroxisome proliferator-activated receptor gamma/Nuclear receptor coactivator 2 (Q15596 whole entry, further chain): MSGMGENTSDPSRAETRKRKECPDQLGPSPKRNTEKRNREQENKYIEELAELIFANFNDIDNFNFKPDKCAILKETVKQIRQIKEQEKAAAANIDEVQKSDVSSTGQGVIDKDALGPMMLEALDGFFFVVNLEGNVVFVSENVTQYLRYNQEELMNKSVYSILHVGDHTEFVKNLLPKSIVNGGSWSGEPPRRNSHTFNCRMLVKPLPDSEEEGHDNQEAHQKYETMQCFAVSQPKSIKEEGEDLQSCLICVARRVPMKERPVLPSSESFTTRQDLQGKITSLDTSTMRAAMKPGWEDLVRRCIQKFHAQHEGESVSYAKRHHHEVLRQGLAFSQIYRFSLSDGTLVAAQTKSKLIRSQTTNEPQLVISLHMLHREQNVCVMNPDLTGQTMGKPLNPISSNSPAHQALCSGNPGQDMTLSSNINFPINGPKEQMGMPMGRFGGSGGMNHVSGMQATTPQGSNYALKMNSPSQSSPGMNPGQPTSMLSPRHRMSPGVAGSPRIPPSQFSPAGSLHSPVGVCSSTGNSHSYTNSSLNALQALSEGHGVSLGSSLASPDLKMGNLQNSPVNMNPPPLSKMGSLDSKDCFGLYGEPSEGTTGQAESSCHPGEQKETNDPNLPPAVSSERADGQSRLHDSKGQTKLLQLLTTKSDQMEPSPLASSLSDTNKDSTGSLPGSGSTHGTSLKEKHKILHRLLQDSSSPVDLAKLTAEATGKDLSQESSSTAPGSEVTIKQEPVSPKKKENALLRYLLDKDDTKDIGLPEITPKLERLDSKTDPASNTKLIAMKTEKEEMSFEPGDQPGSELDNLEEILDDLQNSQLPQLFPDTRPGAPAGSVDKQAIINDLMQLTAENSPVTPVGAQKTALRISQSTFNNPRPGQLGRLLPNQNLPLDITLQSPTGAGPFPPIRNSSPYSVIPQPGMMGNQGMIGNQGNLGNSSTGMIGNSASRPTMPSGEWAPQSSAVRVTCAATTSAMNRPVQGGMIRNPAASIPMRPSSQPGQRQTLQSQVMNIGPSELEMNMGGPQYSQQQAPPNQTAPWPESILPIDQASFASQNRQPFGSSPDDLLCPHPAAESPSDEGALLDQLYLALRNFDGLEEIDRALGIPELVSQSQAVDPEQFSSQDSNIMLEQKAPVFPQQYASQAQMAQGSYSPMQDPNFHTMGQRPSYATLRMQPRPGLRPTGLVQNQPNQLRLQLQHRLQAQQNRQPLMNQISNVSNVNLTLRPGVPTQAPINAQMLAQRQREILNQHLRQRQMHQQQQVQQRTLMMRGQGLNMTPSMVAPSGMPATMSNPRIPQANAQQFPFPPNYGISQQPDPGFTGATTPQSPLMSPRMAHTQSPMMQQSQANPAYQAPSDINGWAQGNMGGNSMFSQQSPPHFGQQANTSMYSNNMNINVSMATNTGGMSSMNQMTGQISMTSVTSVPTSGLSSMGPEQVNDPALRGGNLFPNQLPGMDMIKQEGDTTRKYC
Chain of Peroxisome proliferator-activated receptor gamma/Nuclear receptor coactivator 3 (P37231 whole entry): as the sequence (P37231 whole entry) above
Chain of Peroxisome proliferator-activated receptor gamma/Nuclear receptor coactivator 3 (Q9Y6Q9 whole entry, further chain): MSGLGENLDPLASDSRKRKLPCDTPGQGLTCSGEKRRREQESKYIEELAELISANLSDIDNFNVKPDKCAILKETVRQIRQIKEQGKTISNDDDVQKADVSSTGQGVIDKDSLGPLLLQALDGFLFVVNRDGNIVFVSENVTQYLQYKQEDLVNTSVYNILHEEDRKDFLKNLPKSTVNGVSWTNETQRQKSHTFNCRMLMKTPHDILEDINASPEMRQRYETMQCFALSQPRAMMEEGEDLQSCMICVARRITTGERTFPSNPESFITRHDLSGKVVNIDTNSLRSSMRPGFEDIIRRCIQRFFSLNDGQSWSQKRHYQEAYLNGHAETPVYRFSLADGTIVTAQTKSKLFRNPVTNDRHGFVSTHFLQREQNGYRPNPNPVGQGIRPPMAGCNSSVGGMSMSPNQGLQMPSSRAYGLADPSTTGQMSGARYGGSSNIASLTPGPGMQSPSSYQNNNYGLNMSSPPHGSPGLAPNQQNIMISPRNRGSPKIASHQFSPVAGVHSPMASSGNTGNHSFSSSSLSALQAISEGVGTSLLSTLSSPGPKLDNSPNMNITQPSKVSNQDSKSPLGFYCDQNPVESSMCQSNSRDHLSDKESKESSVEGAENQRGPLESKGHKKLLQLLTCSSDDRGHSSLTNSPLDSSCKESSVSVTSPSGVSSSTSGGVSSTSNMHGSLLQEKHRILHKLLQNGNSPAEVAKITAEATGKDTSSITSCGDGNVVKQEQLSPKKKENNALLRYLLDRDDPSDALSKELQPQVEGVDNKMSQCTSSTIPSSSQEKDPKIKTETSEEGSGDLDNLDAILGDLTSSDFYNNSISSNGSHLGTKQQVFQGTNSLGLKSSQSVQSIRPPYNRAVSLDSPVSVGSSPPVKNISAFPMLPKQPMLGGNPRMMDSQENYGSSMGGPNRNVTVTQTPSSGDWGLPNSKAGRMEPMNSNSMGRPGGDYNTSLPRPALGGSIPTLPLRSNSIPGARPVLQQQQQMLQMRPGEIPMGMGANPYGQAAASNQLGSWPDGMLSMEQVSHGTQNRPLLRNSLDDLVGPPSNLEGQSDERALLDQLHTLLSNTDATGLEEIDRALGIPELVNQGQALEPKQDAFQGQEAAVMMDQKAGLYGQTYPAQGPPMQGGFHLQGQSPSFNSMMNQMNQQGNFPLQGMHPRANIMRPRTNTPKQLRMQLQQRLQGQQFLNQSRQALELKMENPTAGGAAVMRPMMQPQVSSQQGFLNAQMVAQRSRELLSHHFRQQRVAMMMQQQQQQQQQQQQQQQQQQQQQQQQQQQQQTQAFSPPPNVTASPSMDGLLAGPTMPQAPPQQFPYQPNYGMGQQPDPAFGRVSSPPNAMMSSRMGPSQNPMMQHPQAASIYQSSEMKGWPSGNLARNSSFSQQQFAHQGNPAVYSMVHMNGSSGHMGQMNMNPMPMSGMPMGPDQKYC
Chain of Mothers against decapentaplegic homolog 3 (P84022 whole entry): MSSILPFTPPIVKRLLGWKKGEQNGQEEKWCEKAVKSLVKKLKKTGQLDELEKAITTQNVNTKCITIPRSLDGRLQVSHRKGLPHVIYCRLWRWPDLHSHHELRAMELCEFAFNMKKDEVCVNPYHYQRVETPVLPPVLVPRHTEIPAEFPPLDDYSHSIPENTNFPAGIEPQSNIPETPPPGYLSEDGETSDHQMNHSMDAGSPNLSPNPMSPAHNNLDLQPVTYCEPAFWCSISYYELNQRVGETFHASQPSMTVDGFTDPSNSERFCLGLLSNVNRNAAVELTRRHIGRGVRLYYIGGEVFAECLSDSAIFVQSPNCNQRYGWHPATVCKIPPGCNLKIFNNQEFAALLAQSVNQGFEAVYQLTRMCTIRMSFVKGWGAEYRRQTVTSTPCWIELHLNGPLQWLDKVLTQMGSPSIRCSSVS

COc1ccccc1C1Nc2cccc3cccc(c23)N1
IC50 [1]: 35.1 µM (active) | CC50 (HeLa): > 99 µM (not active)

Oc1nc(NN=C(S)NCc2ccccc2)nc2c1C1(CCCCC1)Cc1ccccc1-2
EC50 (Streptococcus): 6.03 µM (active) | AC50 [2]: 3 µM (active) | EC50 (Streptokinase A): 4.58 µM (active) | EC50 [3]: > 100 µM (active) | IC50 [4]: 11.8 µM (active) | EC50 [5]: 3.33 µM (active) | IC50 [6]: 35.8 µM (active)

COc1cc(/C=C2\SC(=O)N(CC(=O)Nc3cccc(C)c3)C2=O)cc([N+](=O)[O-])c1O
IC50 (Aminopeptidase N): 40.8 µM (active) | IC50 [7]: > 50 µM (active)

COc1ccc(N2CCN(C(=O)CCCn3c(=S)[nH]c4ccccc4c3=O)CC2)cc1
IC50 (Estrogen receptor): > 50 µM (not active)

Cc1cc(C)c2c(O)nc(SCC(=O)c3ccc(C)c(C)c3)nc2n1
IC50 [8]: 27.6 µM (active)

CCOC(=O)C1CCN(C(=O)CSc2ccccc2Cl)CC1
EC50 [9]: > 79.4 µM (not active) | EC50 [10]: > 79.4 µM (not active) | EC50 [11]: > 79.4 µM (not active)

Cc1onc(-c2ccccc2Cl)c1C(=O)Nc1cccc(-c2nc3ncccn3c2C)c1
EC50 (Ion channel NompC): > 29.9 µM (not active) | EC50 (Mucolipin-3): > 29.9 µM (not active)

CCCN1CCCc2cc(CN)ccc21
EC50 [12]: 0.127 µM (active) | EC50 [13]: > 30 µM (not active) | EC50 [14]: 13 µM (active) | EC50 [15]: 18.5 µM (active) | IC50 [16]: 24.6 µM (active)
